{"source": "patent US9688637B2", "about": "“3-amidobenzamides and uses thereof for increasing cellular levels of A3G and other A3 family members” (Northwestern University, priority 2014, dated 2017)", "key": {"A3G-Luc/Vif": {"test_system": "A3G-Luc/Vif", "test": "A3G-Luc/Vif luciferase screen in 293T cells stably co-expressing A3G-Luc and HIV-1 Vif", "assay_type": "cell-based, human", "details": "10 μM, 48 hrs, DMSO = 100%", "experimental": "FIG. 6. 293T cell clone #6 stably co-expressing A3G-Luciferase fusion protein together with HIV-1 Vif was used. Small molecule compounds were tested for their effects on stability of A3G and inhibition of Vif activity against A3G by measuring luciferase activity, relative to treatment with control DMSO only. The relative % luciferase activity was higher after treatment with NU compounds than DMSO.\n[…]. After sorting, expression of both A3G-Luc and Vif was confirmed by immunoblotting using antibody against both A3G and Vif.\n(§1) To screen compounds that can boost A3G levels, 293T cells (25,000 cells per well in 96-well plate) stably expressing A3G-Luc protein or A3G-Luc/Vif proteins were plated. After 24 hrs post plating culture medium was replaced with 100 μl of new medium containing either DMSO as a control or various compounds (10 μM concentration). After 48 hrs of incubation with compounds culture medium was removed from each well and replaced with 100 μl of Britelite Plus luciferase assay substrate (PerkinElmer). Following 5 min. of incubation at room temperature, 75 μl of each cell lysate was transferred to a 96-well OptiPlate 96 (PerkinElmer) and luminescence was measured in a VICTOR X2 Multilabel Reader (PerkinElmer). Relative activity of compounds for their boosting capability A3G-Luc activity was calculated by plotting DMSO-treated A3G-Luc or A3G-Luc/Vif cells as 100%. Cellular cytotoxicity was measured by counting number of cells after 48 hrs of incubation with compounds compared to DMSO treated cells."}, "A3G-Luc": {"test_system": "A3G-Luc", "test": "A3G-Luc luciferase screen in 293T cells stably expressing A3G-Luc", "assay_type": "cell-based, human", "details": "10 μM, 48 hrs, DMSO = 100%", "from_the_text": "This background led to construction of cell lines to use in a search for compounds that might boost levels of A3s in the HIV target cells of the majority of HIV-infected persons who are non-controllers. The goal is to test a strategy of using such a booster in acute/early infection to prevent the hypothesized decrease of A3G and related A3s in an effort to increase “control” in persons lacking HLA B57/27-associated control. […] 293T and TZM-bl cells were maintained in DMEM (containing 4.5 g/liter glucose, L-glutamine, and sodium pyruvate) medium plus 10% fetal bovine serum, 50 IU/ml penicillin, and 50 μg/ml streptomycin at 37° C. and 5% CO2 throughout the experiments. […]. After collecting viral supernatant, 293T cells were infected with viral particles harboring the A3G-Luc expressing vector and selected with puromycin (0.75 μg/ml) for three days. Ten single cell clones of stable cells were isolated and tested for expression of A3G-Luc protein by both immunoblotting using antibody against A3G and measuring luciferase activity. Expressions in cell lines used for subsequent experiments are depicted in FIG. 2, upper panel. The A3G-Luc fusion protein was sensitive to Vif-mediated degradation (FIG. 3). Similar cells lines stably expressing A3F were constructed with the same methods (not shown).\nas §1, with “After 24 hrs post plating culture medium was replaced with 100 μl of new medium containing either DMSO as a control or various compounds (10 μM concentration).” left out"}}}
{"smiles": "COc1ccc(C(=O)Nc2ccc(Cl)c(Cl)c2)cc1NC(=O)Cc1ccccc1", "note": "[NU-308]", "values": [{"measurement": "Vif-A3G-Luc Activity (% of RLUs compared to DMSO treated control)", "setting": "A3G-Luc/Vif", "value": 113, "unit": "%"}, {"measurement": "A3G-Luc Activity (% of Relative Light Units compared to DMSO treated control)", "setting": "A3G-Luc", "value": 92, "unit": "%"}]}
{"smiles": "COc1ccc(C(=O)Nc2ccc(Cl)c(Cl)c2)cc1NC(=O)c1ccccc1", "note": "[NU-309]", "values": [{"measurement": "Vif-A3G-Luc Activity (% of RLUs compared to DMSO treated control)", "setting": "A3G-Luc/Vif", "value": 94, "unit": "%"}, {"measurement": "A3G-Luc Activity (% of Relative Light Units compared to DMSO treated control)", "setting": "A3G-Luc", "value": 100, "unit": "%"}]}
{"smiles": "COc1ccc(C(=O)Nc2ccc(Cl)c(Cl)c2)cc1NC(=O)CC1CCCCC1", "note": "[NU-454]", "values": [{"measurement": "Vif-A3G-Luc Activity (% of RLUs compared to DMSO treated control)", "setting": "A3G-Luc/Vif", "value": 84, "unit": "%"}, {"measurement": "A3G-Luc Activity (% of Relative Light Units compared to DMSO treated control)", "setting": "A3G-Luc", "value": 86, "unit": "%"}]}
{"smiles": "COc1ccc(C(=O)Nc2ccc(OC)c(OC)c2)cc1NC(=O)C(C)C", "note": "[NU-572]", "values": [{"measurement": "Vif-A3G-Luc Activity (% of RLUs compared to DMSO treated control)", "setting": "A3G-Luc/Vif", "value": 91, "unit": "%"}, {"measurement": "A3G-Luc Activity (% of Relative Light Units compared to DMSO treated control)", "setting": "A3G-Luc", "value": 98, "unit": "%"}]}
{"smiles": "COc1ccc(C(=O)Nc2ccc(Cl)c(Cl)c2)cc1NC(=O)c1cccnc1", "note": "[NU-307]", "values": [{"measurement": "Vif-A3G-Luc Activity (% of RLUs compared to DMSO treated control)", "setting": "A3G-Luc/Vif", "value": 91, "unit": "%"}, {"measurement": "A3G-Luc Activity (% of Relative Light Units compared to DMSO treated control)", "setting": "A3G-Luc", "value": 102, "unit": "%"}]}
{"smiles": "COc1ccc(CNC(=O)c2ccc(OC)c(NC(=O)C(C)C)c2)cc1", "note": "[NU-568]", "values": [{"measurement": "Vif-A3G-Luc Activity (% of RLUs compared to DMSO treated control)", "setting": "A3G-Luc/Vif", "value": 87, "unit": "%"}, {"measurement": "A3G-Luc Activity (% of Relative Light Units compared to DMSO treated control)", "setting": "A3G-Luc", "value": 96, "unit": "%"}]}
{"smiles": "CCC(C)C(=O)Nc1cc(C(=O)Nc2ccc(Cl)c(Cl)c2)ccc1OC", "note": "(stereo not drawn) [NU-456]", "values": [{"measurement": "Vif-A3G-Luc Activity (% of RLUs compared to DMSO treated control)", "setting": "A3G-Luc/Vif", "value": 113, "unit": "%"}, {"measurement": "A3G-Luc Activity (% of Relative Light Units compared to DMSO treated control)", "setting": "A3G-Luc", "value": 148, "unit": "%"}]}
{"smiles": "COc1ccc(C(=O)Nc2ccc(Cl)c(Cl)c2)cc1NC(=O)C1CCOCC1", "note": "[NU-305]", "values": [{"measurement": "Vif-A3G-Luc Activity (% of RLUs compared to DMSO treated control)", "setting": "A3G-Luc/Vif", "value": 109, "unit": "%"}, {"measurement": "A3G-Luc Activity (% of Relative Light Units compared to DMSO treated control)", "setting": "A3G-Luc", "value": 121, "unit": "%"}]}
{"smiles": "COc1ccc(C(=O)Nc2ccc(Cl)c(Cl)c2)cc1NS(=O)(=O)C1CCC1", "note": "[NU-470]", "values": [{"measurement": "Vif-A3G-Luc Activity (% of RLUs compared to DMSO treated control)", "setting": "A3G-Luc/Vif", "value": 85, "unit": "%"}, {"measurement": "A3G-Luc Activity (% of Relative Light Units compared to DMSO treated control)", "setting": "A3G-Luc", "value": 100, "unit": "%"}]}
{"smiles": "COc1ccc(C(=O)Nc2ccc3c(c2)OCO3)cc1NC(=O)C(C)C", "note": "[NU-50]", "values": [{"measurement": "Vif-A3G-Luc Activity (% of RLUs compared to DMSO treated control)", "setting": "A3G-Luc/Vif", "value": 145, "unit": "%"}, {"measurement": "A3G-Luc Activity (% of Relative Light Units compared to DMSO treated control)", "setting": "A3G-Luc", "value": 115, "unit": "%"}]}
{"smiles": "COc1ccc(C(=O)Nc2ccc(Cl)c(Cl)c2)cc1NC(=O)c1ccc2c(c1)OCO2", "note": "[NU-303]", "values": [{"measurement": "Vif-A3G-Luc Activity (% of RLUs compared to DMSO treated control)", "setting": "A3G-Luc/Vif", "value": 71, "unit": "%"}, {"measurement": "A3G-Luc Activity (% of Relative Light Units compared to DMSO treated control)", "setting": "A3G-Luc", "value": 90, "unit": "%"}]}
{"smiles": "COc1ccc(C(=O)NCc2ccccc2)cc1NC(=O)C(C)C", "note": "[NU-566]", "values": [{"measurement": "Vif-A3G-Luc Activity (% of RLUs compared to DMSO treated control)", "setting": "A3G-Luc/Vif", "value": 80, "unit": "%"}, {"measurement": "A3G-Luc Activity (% of Relative Light Units compared to DMSO treated control)", "setting": "A3G-Luc", "value": 106, "unit": "%"}]}
{"smiles": "COc1ccc(C(=O)Nc2ccc(Cl)c(Cl)c2)cc1NC(=O)CC1CCCC1", "note": "[NU-453]", "values": [{"measurement": "Vif-A3G-Luc Activity (% of RLUs compared to DMSO treated control)", "setting": "A3G-Luc/Vif", "value": 95, "unit": "%"}, {"measurement": "A3G-Luc Activity (% of Relative Light Units compared to DMSO treated control)", "setting": "A3G-Luc", "value": 169, "unit": "%"}]}
{"smiles": "COc1ccc(C(=O)Nc2ccc(Cl)c(Cl)c2)cc1NC(=O)OC(C)C", "note": "[NU-461]", "values": [{"measurement": "Vif-A3G-Luc Activity (% of RLUs compared to DMSO treated control)", "setting": "A3G-Luc/Vif", "value": 70, "unit": "%"}, {"measurement": "A3G-Luc Activity (% of Relative Light Units compared to DMSO treated control)", "setting": "A3G-Luc", "value": 124, "unit": "%"}]}
{"smiles": "COc1ccc(C(=O)Nc2ccc(F)c(F)c2)cc1NC(=O)C(C)C", "note": "[NU-571]", "values": [{"measurement": "Vif-A3G-Luc Activity (% of RLUs compared to DMSO treated control)", "setting": "A3G-Luc/Vif", "value": 104, "unit": "%"}, {"measurement": "A3G-Luc Activity (% of Relative Light Units compared to DMSO treated control)", "setting": "A3G-Luc", "value": 116, "unit": "%"}]}
{"smiles": "COc1ccc(C(=O)Nc2ccc(Cl)c(Cl)c2)cc1NC(=O)N1CCCCC1", "note": "[NU-473]", "values": [{"measurement": "Vif-A3G-Luc Activity (% of RLUs compared to DMSO treated control)", "setting": "A3G-Luc/Vif", "value": 84, "unit": "%"}, {"measurement": "A3G-Luc Activity (% of Relative Light Units compared to DMSO treated control)", "setting": "A3G-Luc", "value": 110, "unit": "%"}]}
{"smiles": "CCCCOc1ccc(C(=O)Nc2ccc(Cl)c(Cl)c2)cc1NC(=O)C1CCC1", "note": "[NU-614]", "values": [{"measurement": "Vif-A3G-Luc Activity (% of RLUs compared to DMSO treated control)", "setting": "A3G-Luc/Vif", "value": 99, "unit": "%"}, {"measurement": "A3G-Luc Activity (% of Relative Light Units compared to DMSO treated control)", "setting": "A3G-Luc", "value": 96, "unit": "%"}]}
{"smiles": "COc1ccc(C(=O)Nc2ccc(Cl)c(Cl)c2)cc1NC(=O)c1ccncc1", "note": "[NU-306]", "values": [{"measurement": "Vif-A3G-Luc Activity (% of RLUs compared to DMSO treated control)", "setting": "A3G-Luc/Vif", "value": 84, "unit": "%"}, {"measurement": "A3G-Luc Activity (% of Relative Light Units compared to DMSO treated control)", "setting": "A3G-Luc", "value": 96, "unit": "%"}]}
{"smiles": "COc1ccc(C(=O)Nc2ccc(Cl)c(Cl)c2)cc1NS(=O)(=O)C1CC1", "note": "[NU-469]", "values": [{"measurement": "Vif-A3G-Luc Activity (% of RLUs compared to DMSO treated control)", "setting": "A3G-Luc/Vif", "value": 82, "unit": "%"}, {"measurement": "A3G-Luc Activity (% of Relative Light Units compared to DMSO treated control)", "setting": "A3G-Luc", "value": 100, "unit": "%"}]}
{"smiles": "CCC(C)(C)C(=O)Nc1cc(C(=O)Nc2ccc(Cl)c(Cl)c2)ccc1OC", "note": "[NU-457]", "values": [{"measurement": "Vif-A3G-Luc Activity (% of RLUs compared to DMSO treated control)", "setting": "A3G-Luc/Vif", "value": 93, "unit": "%"}, {"measurement": "A3G-Luc Activity (% of Relative Light Units compared to DMSO treated control)", "setting": "A3G-Luc", "value": 120, "unit": "%"}]}
{"smiles": "COc1ccc(C(=O)Nc2ccc(Cl)c(Cl)c2)cc1NC(=O)CC(C)C", "note": "[NU-452]", "values": [{"measurement": "Vif-A3G-Luc Activity (% of RLUs compared to DMSO treated control)", "setting": "A3G-Luc/Vif", "value": 110, "unit": "%"}, {"measurement": "A3G-Luc Activity (% of Relative Light Units compared to DMSO treated control)", "setting": "A3G-Luc", "value": 140, "unit": "%"}]}
